Results from ChEMBL document CHEMBL1134913, “Novel substituted 4-aminomethylpiperidines as potent and selective human beta3-agonists. Part 1: aryloxypropanolaminomethylpiperidines” (Bioorg Med Chem Lett, 2002).

Assays:
[1] = biological target: T1, Beta-3 adrenergic receptor (Homo sapiens, UniProt P13945); assay: In vitro agonist activity by increase in cAMP levels in chinese hamster ovary cells (CHO) cells stimulated by human Beta-3 adrenergic receptor was determined; IA is inactive; type: functional, cell-based
Target sequence in this assay (P13945 whole entry): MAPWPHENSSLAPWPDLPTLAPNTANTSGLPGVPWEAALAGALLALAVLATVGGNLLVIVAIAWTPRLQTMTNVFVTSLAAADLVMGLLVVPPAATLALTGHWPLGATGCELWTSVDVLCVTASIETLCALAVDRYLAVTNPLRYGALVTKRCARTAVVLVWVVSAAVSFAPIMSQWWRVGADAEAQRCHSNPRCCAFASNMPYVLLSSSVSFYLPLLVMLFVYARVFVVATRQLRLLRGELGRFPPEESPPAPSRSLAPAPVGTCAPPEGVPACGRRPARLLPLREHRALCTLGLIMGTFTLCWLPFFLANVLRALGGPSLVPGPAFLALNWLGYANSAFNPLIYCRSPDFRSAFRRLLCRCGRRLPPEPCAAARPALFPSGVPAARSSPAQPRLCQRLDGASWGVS

[2] = biological target: T1, Beta-3 adrenergic receptor; assay: Intrinsic activity (IA) for Beta-3 adrenergic receptor agonism was determined as the maximal response with respect to the maximal response of isoproterenol at […].
Target sequence in this assay (P13945 whole entry, looked up): as the sequence (P13945 whole entry) above

[3] = biological target: T2, Beta-1 adrenergic receptor (Homo sapiens, UniProt P08588); assay: In vitro agonist activity measured by increase in cAMP levels in chinese hamster ovary cells (CHO) cells expressing human Beta-1 adrenergic receptor; type: functional, cell-based
Target sequence in this assay (P08588 whole entry): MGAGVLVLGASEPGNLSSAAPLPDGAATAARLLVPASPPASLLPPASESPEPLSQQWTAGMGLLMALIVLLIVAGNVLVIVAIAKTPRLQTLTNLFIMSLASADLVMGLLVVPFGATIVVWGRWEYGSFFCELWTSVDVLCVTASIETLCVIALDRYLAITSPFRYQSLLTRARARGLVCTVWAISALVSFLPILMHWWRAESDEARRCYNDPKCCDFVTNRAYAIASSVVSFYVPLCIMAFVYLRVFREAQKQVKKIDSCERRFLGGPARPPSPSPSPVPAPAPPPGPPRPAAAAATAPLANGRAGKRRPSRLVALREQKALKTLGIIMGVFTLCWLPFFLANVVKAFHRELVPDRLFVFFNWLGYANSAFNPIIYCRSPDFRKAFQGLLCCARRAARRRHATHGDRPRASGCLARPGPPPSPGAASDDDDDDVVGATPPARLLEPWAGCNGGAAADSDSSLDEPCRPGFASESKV

[4] = biological target: T3, Beta-2 adrenergic receptor (Homo sapiens, UniProt P07550); assay: In vitro agonist activity measured by increase in cAMP levels in chinese hamster ovary cells (CHO) cells expressing human Beta-2 adrenergic receptor; type: functional, cell-based
[5] = biological target: T2, Beta-1 adrenergic receptor; assay: Intrinsic activity (IA) for Beta-1 adrenoceptor agonism was determined as the maximal response with respect to the maximal response of isoproterenol at […].; type: functional
Target sequence in this assay (P08588 whole entry, looked up): as the sequence (P08588 whole entry) above

[6] = biological target: T3, Beta-2 adrenergic receptor; assay: (§1) Compound was tested for the antagonistic activity against Beta-2 adrenergic receptor; type: functional
[7] = biological target: T2, Beta-1 adrenergic receptor; assay: Compound was tested for the antagonistic activity against Beta-1 adrenergic receptor; type: functional
Target sequence in this assay (P08588 whole entry): as above

Mus musculus = assay: In vivo activity of compound with an increase in thermogenesis in the Beta 3 transgenic mice at an ip dose of 10 mg/kg was determined; type: functional; settings: route intraperitoneal
[8] = biological target: T3, Beta-2 adrenergic receptor; assay: In vitro agonist activity by increase in cAMP levels in chinese hamster ovary cells (CHO) cells stimulated by human Beta-2 Adrenoceptor; type: functional, cell-based
[9] = biological target: T1, Beta-3 adrenergic receptor; assay: Intrinsic activity (IA) for Beta-3 adrenoceptor agonism was determined as the maximal response with respect to the maximal response of isoproterenol at […].; type: functional
Target sequence in this assay (P13945 whole entry, looked up): as the sequence (P13945 whole entry) above

[10] = biological target: T2, Beta-1 adrenergic receptor; assay: In vitro agonist activity by increase in cAMP levels in chinese hamster ovary cells (CHO) cells stimulated by human Beta-1 Adrenoceptor was determined; type: functional, cell-based
Target sequence in this assay (P08588 whole entry): as the sequence (P08588 whole entry) above

[11] = biological target: T1, Beta-3 adrenergic receptor; assay: In vitro agonist activity by increase in cAMP levels in chinese hamster ovary cells (CHO) cells stimulated by human Beta-3 Adrenoceptor was determined; type: functional, cell-based
Target sequence in this assay (P13945 whole entry): as the sequence (P13945 whole entry) above

[12] = biological target: T3, Beta-2 adrenergic receptor; assay: as §1

T3 sequence (P07550 whole entry): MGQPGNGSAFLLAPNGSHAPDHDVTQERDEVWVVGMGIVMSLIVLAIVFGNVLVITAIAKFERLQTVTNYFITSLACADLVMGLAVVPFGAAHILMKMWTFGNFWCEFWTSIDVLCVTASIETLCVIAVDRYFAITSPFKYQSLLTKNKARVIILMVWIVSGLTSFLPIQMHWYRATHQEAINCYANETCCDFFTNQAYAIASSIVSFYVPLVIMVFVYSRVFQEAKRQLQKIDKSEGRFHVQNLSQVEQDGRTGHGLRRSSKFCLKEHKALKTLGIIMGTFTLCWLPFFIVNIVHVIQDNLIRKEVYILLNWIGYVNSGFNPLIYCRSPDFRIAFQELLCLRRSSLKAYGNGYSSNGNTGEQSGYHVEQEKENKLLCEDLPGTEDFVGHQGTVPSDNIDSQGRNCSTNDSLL

SMILES	EC50 [3]	EC50 [4]	other results
O[C@@H](CNCC1CCN(c2ncccc2C(F)(F)F)CC1)COc1cccc2[nH]c3ccccc3c12			EC50 [1]: Not Active; EC50 [2]: Not Active
O=C(NCCCc1cccs1)Nc1ccc(S(=O)(=O)N2CCC(CNC[C@H](O)COc3ccc(O)cc3)CC2)cc1	2050 nM		
O=C(NCc1cc(F)ccc1F)Nc1ccc(S(=O)(=O)N2CCC(CNC[C@H](O)COc3ccc(O)c(F)c3)CC2)cc1	525 nM		
CCCCCCN1CCC(CNC[C@H](O)COc2cccc3[nH]c4ccccc4c23)CC1	> 1000 nM	> 1000 nM	
CCCCCCNC(=O)Nc1ccc(S(=O)(=O)N2CCC(CNC[C@H](O)COc3cccc4[nH]c5ccccc5c34)CC2)cc1	> 1000 nM	> 1000 nM	
O=C(NCc1cc(F)ccc1F)Nc1ccc(S(=O)(=O)N2CCC(CNC[C@H](O)COc3ccc(O)cc3)CC2)cc1	1010 nM		
O[C@@H](CNCC1CCN(CCC(F)(F)F)CC1)COc1cccc2[nH]c3ccccc3c12	417 nM	> 1000 nM	
CS(=O)(=O)Nc1cc(OC[C@@H](O)CNCC2CCN(S(=O)(=O)c3ccc(NC(=O)NCc4cc(F)ccc4F)cc3)CC2)ccc1O	353 nM	454 nM	Intrinsic activity [5]: 0.49; IC50 [6]: 268 nM; IC50 [7]: 6160 nM; Thermogenesis (Mus musculus): 18
CCCCCCNC(=O)Nc1ccc(S(=O)(=O)N2CCC(CNC[C@H](O)COc3ccc(O)cc3)CC2)cc1	10900 nM		
O=C(Nc1ccc(S(=O)(=O)N2CCC(CNC[C@H](O)COc3ccc(O)cc3)CC2)cc1)NC1CCCCC1	1020 nM		
O=C(Nc1ccccc1)Nc1ccc(S(=O)(=O)N2CCC(CNC[C@H](O)COc3ccc(O)cc3)CC2)cc1	489 nM		
O=C(O)c1cccc(NC(=O)N2CCC(CNC[C@H](O)COc3cccc4[nH]c5ccccc5c34)CC2)c1			EC50 [8]: > 1000 nM; Intrinsic activity [9]: 0.29; Intrinsic activity [5]: 0.05; EC50 [10]: > 1000 nM; EC50 [11]: 70 nM
CCCCCCCCNC(=O)Nc1ccc(S(=O)(=O)N2CCC(CNC[C@H](O)COc3ccc(O)c4c3CCC(=O)N4)CC2)cc1	390 nM	680 nM	Intrinsic activity [5]: 0.63
CCCCCCCCNC(=O)Nc1ccc(S(=O)(=O)N2CCC(CNC[C@H](O)COc3ccc(O)cc3)CC2)cc1	887 nM		IC50 [12]: 4 nM; IC50 [7]: 27 nM; Thermogenesis (Mus musculus): 30
